The source of these data is US20220107246A1, “NONCOVALENT TAGS AND RELATED METHODS FOR CYTOSOLIC DELIVERY OF MACROBIOMOLECULES” (University of Washington, priority 2019, published 2022).

Assay type in all cases: cell-based
Data set [1] relates to HeLa cells. Nature of the data set: Toxicity study of CB and cholesterol tag (CellTiter-Blue). The settings on record: FIG. 14, HeLa cells. As to the method: Cytotoxicity of the tag was evaluated on HeLa cells. Briefly, cells were seeded in 96-well plates at 3,000 cells/well. CB, the tag, or tagged protein (BSA) was added at a series of concentrations from 10 μM to 3.3 nM. Untreated cells were used as control. After 48-h incubation, 10 μl of CellTiter-Blue reagent (Promega) was added to the wells and the culture was incubated for another 1 h. Cell viability was examined on a microplate reader (Tecan) at ex/em=560/590 nm and the toxicity was analyzed according to the manufacturer's protocol.

In data set [2] the test system is HeLa cells. Kind of data set: Cyt c delivery and intracellular distribution (fluorescence imaging). From the text:
For a proof-of-principle application in therapeutic protein delivery, we selected cytochrome c (Cyt c), an intracellular signaling protein for apoptosis, as a model cargo molecule. To track Cyt c delivery and intracellular distribution, it was labeled with a fluorescent dye (AF488, green). Cell nucleic were counterstained by Hoechst 33258 (blue). […] This is expected because Cyt c is a highly water-soluble macromolecule (m.w. ˜12 kDa) that cannot diffuse through the cell membrane by itself. Instead, a minute amount of Cyt c was uptaken by cells but trapped in endosomes/lysosomes (not shown). […] This study proves the feasibility and potential of specific targeting of certain cell signaling nodes inside cells with protein drugs.
(§1) HeLa cells were seeded onto glass-bottom dishes and cultured overnight. The cells were treated with cyt c (tagged or untagged) of various concentrations in culture media for 4 h, washed, and cultured in fresh media for another 48 h. Cell viability was measured using the dual-color LIVE/DEAD Viability/Cytotoxicity Kit following the manufacturer's instruction.

Data set [3] concerns HeLa cells. Nature of the data set: Cancer cell viability upon treatment with cytochrome c (LIVE/DEAD). The settings on record: Cyt c concentration of 2 μM for cell incubation. How it is done: as §1

Regarding `CCOc1ccc(Nc2ccc(/C(=C3C=C/C(=[N+](/CC)Cc4cccc(S(=O)(=O)[O-])c4)C=C/3C)c3ccc(N(CC)Cc4cccc(S(=O)(=O)[O-])c4)cc3C)cc2)cc1.[Na+]` [Coomassie blue], the biocompatibility entry in the data set on HeLa cells [1] is reported as “biocompatible”.

For the molecule “Cyt c alone: cytochrome c, intracellular signaling protein for apoptosis, m.w. ~12 kDa, untagged”, in the data set on HeLa cells [2], the “intracellular fluorescence of AF488-labeled Cyt c” value is “minor dotted intracellular green fluorescence”. Also, in the data set with HeLa cells [3], the cell viability entry was “no sign of toxicity”.
